Data from US9783536B2, “Nitrogen-containing heterocyclic compound or salt thereof” (FUJIFILM Corporation, priority 2013, dated 2017).
Where a name gives a salt, the structure may show the parent alone. Read-outs that look alike come from different tables or passages of the source.

Assays:
human PI3Kα protein = biological target: T1, human PI3Kα protein (Homo sapiens, UniProt P42336); test: PI3Kα enzyme assay (ADP-Glo); format: biochemical; conditions: read-out: PI3Kα enzyme inhibitory activity
T1 construct: purchased Carna Biosciences, Inc; host or cells: baculovirus expression system
In short: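 Biotinylated human PI3Kα (baculovirus-expressed, 4.5 nmol/L) pre-incubated 15 min with compound in Tris-HCl pH 7.5, MgCl2, BSA; reaction 60 min at 25° C with 50 μmol/L PIP2 and 100 μmol/L ATP final. ADP quantified by ADP-Glo luminescence; IC50 calculated.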

[1] = biological target: T2, GST fusion human ERK2 protein (Homo sapiens, UniProt P28482); test: ERK2 enzyme assay (1); format: biochemical; conditions: read-out: ERK2 enzyme inhibitory activity (1)
T2 construct: purchased Carna Biosciences, Inc; host or cells: E. coli expression system
In short: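 Enzyme (2.5 nmol/L, E. coli-expressed) preincubated with compound 15 min at room temperature in HEPES/MgCl2/DTT/Brij35 buffer, pH 7.5; reaction with 4.25 μmol/L FL-Peptide 8 and 43.1 μmol/L ATP for 120 min at 25 °C. Phosphorylated peptide fraction quantified by mobility-shift separation after EDTA stop; IC50 calculated.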

[2] = 4.5 nmol/L PI3Kα, PIP2 50 μmol/L, ATP 100 μmol/L
[3] = 2.5 nmol/L ERK2, ATP 43.1 μmol/L

T2 sequence (P28482 whole entry, the tested form may be a part): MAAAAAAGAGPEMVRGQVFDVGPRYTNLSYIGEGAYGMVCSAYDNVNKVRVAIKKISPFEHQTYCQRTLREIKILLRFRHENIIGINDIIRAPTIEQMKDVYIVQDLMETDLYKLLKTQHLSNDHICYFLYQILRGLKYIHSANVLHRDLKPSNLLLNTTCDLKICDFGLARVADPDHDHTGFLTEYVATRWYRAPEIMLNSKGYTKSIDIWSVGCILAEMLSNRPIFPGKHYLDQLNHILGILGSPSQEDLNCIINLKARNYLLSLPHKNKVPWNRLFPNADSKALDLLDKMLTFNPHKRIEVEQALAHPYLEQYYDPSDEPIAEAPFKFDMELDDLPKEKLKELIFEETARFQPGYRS
T1 sequence (P42336 whole entry): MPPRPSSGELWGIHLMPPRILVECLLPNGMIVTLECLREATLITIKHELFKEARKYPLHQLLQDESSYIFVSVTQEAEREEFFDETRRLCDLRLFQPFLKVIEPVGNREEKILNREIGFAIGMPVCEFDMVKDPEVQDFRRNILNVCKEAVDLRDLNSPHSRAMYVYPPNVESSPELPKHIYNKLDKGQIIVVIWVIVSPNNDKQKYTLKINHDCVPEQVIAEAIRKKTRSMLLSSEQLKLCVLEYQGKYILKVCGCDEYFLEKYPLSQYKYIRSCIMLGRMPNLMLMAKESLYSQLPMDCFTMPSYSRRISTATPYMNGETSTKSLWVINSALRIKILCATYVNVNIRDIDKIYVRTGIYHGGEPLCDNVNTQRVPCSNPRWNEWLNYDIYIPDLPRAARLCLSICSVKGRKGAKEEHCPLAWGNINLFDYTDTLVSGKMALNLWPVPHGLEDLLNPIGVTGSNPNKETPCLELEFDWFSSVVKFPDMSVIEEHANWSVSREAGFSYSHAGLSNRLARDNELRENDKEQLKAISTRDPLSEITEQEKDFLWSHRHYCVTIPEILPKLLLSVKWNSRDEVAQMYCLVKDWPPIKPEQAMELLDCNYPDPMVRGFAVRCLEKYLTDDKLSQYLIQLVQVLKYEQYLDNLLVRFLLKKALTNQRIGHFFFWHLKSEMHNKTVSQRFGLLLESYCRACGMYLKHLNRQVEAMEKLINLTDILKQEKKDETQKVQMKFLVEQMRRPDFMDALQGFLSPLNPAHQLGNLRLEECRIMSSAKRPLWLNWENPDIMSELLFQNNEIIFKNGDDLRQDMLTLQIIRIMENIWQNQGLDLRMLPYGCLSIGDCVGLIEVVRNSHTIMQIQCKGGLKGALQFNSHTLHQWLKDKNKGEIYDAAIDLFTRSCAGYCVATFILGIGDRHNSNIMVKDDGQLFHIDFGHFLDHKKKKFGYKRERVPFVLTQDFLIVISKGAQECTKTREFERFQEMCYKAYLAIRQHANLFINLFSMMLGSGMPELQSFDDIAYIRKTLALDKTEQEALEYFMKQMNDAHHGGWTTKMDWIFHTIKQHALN
T1 sequence (P27986 whole entry partner): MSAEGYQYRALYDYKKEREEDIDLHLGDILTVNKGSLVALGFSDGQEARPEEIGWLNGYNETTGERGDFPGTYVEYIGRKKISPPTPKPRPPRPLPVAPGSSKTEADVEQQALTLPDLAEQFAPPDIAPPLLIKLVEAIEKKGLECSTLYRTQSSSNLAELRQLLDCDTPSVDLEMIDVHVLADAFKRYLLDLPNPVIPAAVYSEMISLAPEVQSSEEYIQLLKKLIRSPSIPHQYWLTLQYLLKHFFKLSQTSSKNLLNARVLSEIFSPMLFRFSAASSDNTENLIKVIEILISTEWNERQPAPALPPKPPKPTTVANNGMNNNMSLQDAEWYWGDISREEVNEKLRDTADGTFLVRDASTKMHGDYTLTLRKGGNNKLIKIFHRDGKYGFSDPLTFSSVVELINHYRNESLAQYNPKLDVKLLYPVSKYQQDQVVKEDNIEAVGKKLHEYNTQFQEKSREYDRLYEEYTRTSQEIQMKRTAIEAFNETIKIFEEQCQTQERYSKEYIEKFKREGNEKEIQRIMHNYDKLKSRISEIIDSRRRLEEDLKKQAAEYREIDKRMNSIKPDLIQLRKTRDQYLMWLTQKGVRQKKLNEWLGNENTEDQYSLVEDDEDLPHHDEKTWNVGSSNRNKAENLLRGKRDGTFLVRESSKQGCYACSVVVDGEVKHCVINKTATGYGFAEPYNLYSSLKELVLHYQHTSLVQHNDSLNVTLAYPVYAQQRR

IC50 (human PI3Kα protein) [nM]	IC50 ([1]; ERK2 enzyme assay (1)) [nM]	IC50 (human PI3Kα protein; [2]) [nM]	IC50 [1, 3] [nM]	Compound
< 1000	< 1000			c1nc2ccc(Nc3nnc(C4CCCCO4)s3)nc2cc1-c1cnn(CCCN2CCCC2)c1 (centres unmarked) [Example 0244, N-(7-(1-(3-(pyrrolidin-1-yl)propyl)-1H-pyrazol-4-yl)-1,5-naphthyridin-2-yl)-5-(tetrahydro-2H-pyran-2-yl)-1,3,4-thiadiazole-2-amine]
1000 to 10000	< 1000			Cn1cc(-c2cnc3ccc(Nc4nnc[nH]4)nc3c2)cn1 [Example 0300, 7-(1-Methyl-1H-pyrazol-4-yl)-N-(4H-1,2,4-triazol-3-yl)-1,5-naphthyridine-2-amine]
		1000 to 10000	10000 to 50000	COc1ccc(-c2cnc3ccc(Nc4nc(C)cs4)nc3c2)cc1OC [Example 0024, N-(7-(3,4-dimethoxyphenyl)-1,5-naphthyridin-2-yl)-4-methylthiazole-2-amine]
< 1000	< 1000			CCc1nn(CCCN2CCCC2)cc1-c1cnc2ccc(Nc3cc(C(C)C)cnn3)nc2c1 [Example 0386, 7-(3-ethyl-1-(3-(pyrrolidin-1-yl)propyl)-1H-pyrazol-4-yl)-N-(5-isopropylpyridazin-3-yl)-1,5-naphthyridine-2-amine]
10000 to 50000	< 1000			c1ccc(Nc2cnc3ccc(Nc4nnc(C5CCCC5)s4)nc3c2)nc1 [Example 0206]
< 1000	< 1000			Cc1nnc(Nc2ccc3ncc(-c4cnn(CCCN5CCCC5)c4)cc3n2)s1 [Example 0323]
< 1000	< 1000			c1cnnc(Nc2cnc3ccc(Nc4nnc(C5CCCC5)s4)nc3c2)c1 [Example 0224, N^2-(5-cyclopentyl-1,3,4-thiadiazol-2-yl)-N^7-(pyridazin-3-yl)-1,5-naphthyridine-2,7-diamine]
1000 to 10000	< 1000			c1n[nH]cc1-c1cnc2ccc(Nc3nnc(C4CCCC4)s3)nc2c1 [Example 0201]
		< 1000	< 1000	CN(C)S(=O)(=O)c1nnc(Nc2ccc3ncc(-c4cnn(C)c4)cc3n2)s1 [Example 0193, N,N-dimethyl-5-((7-(1-methyl-1H-pyrazol-4-yl)-1,5-naphthyridin-2-yl)amino)-1,3,4-thiadiazole-2-sulfonamide]
		< 1000	< 1000	CC(C)c1cnc(Nc2ccc3ncc(-c4cnn(C)c4)cc3n2)s1 [Example 0123, 5-isopropyl-N-(7-(1-methyl-1H-pyrazol-4-yl)-1,5-naphthyridin-2-yl)thiazole-2-amine]
< 1000	< 1000			CC(C)c1nnc(Nc2ccc3nccc(-c4cccc(C(N)=O)c4)c3n2)s1 [Example 0287]
		< 1000	< 1000	c1ncc(OCCN2CCOCC2)cc1Nc1cnc2ccc(Nc3nnc(C4CCCC4)s3)nc2c1 [Example 0082]
< 1000	< 1000			COc1cnccc1-c1ccnc2ccc(Nc3nnc(C(C)C)s3)nc12 [Example 0279]
< 1000	< 1000			CC(C)c1cnnc(Nc2ccc3ncc(-c4cnn(Cc5ccccn5)c4)cc3n2)c1 [Example 0375, N-(5-isopropylpyridazin-3-yl)-7-(1-(pyridin-2-ylmethyl)-1H-pyrazol-4-yl)-1,5-naphthyridine-2-amine]
		1000 to 10000	< 1000	CC(C)Oc1cncc(Nc2cnc3ccc(Nc4nnc(C5CCCC5)s4)nc3c2)c1 [Example 0100]
1000 to 10000	< 1000			CC(C)c1cnnc(Nc2ccc3ncc(-c4ccccn4)cc3n2)c1 [Example 0369]
< 1000	< 1000			CC(C)c1cnnc(Nc2ccc3ncc(-c4cn(C)nc4CO)cc3n2)c1 [Example 0394, (4-(6-((5-isopropylpyridazin-3-yl)amino)-1,5-naphthyridin-3-yl)-1-methyl-1H-pyrazol-3-yl)methanol]
		1000 to 10000	1000 to 10000	CC(C)c1nnc(Nc2ccc3nccc(Nc4ccccc4)c3n2)s1 [Example 0009]
< 1000	< 1000			CN(C)CCn1cc(-c2cnc3ccc(Nc4nnc(C5CCCC5)s4)nc3c2)cn1 [Example 0304, 5-Cyclopentyl-N-(7-(1-(2-(dimethylamino)ethyl)-1H-pyrazol-4-yl)-1,5-naphthyridin-2-yl)-1,3,4-thiadiazole-2-amine]
		< 1000	< 1000	CCc1cnnc(Nc2ccc3ncc(-c4cnn(CCCN5CCOCC5)c4)cc3n2)c1 [Example 0178, N-(5-ethylpyridazin-3-yl)-7-(1-(3-morpholinopropyl)-1H-pyrazol-4-yl)-1,5-naphthyridine-2-amine]
		< 1000	1000 to 10000	CC(C)c1nnc(Nc2ccc3nccc(Nc4ccnnc4)c3n2)s1 [Example 0008]
		< 1000	< 1000	CC(C)c1nnc(Nc2ccc3ncc(-c4cn(C)nc4C(C)C)cc3n2)s1 [Example 0125]
1000 to 10000	< 1000			c1n[nH]cc1Nc1cnc2ccc(Nc3nnc(C4CCCCC4)s3)nc2c1 [Example 0223]

IC50 (human PI3Kα protein) [nM]	IC50 ([1]; ERK2 enzyme assay (1)) [nM]	IC50 (human PI3Kα protein; [2]) [nM]	IC50 [1, 3] [nM]	Compound
		1000 to 10000	< 1000	c1cnc2ccc(Nc3nnc(C4CCCC4)s3)nc2c1 [Example 0043, 5-cyclopentyl-N-(1,5-naphthyridin-2-yl)-1,3,4-thiadiazole-2-amine hydrochloride]
< 1000	< 1000			c1cnc(Nc2cnc3ccc(Nc4nnc(C5CCCC5)s4)nc3c2)cn1 [Example 0209]
		< 1000	< 1000	Cn1cc(-c2cnc3ccc(Nc4nnc(S(N)(=O)=O)s4)nc3c2)cn1 [Example 0191, ((5-((7-(1-methyl-1H-pyrazol-4-yl)-1,5-naphthyridin-2-yl)amino)-1,3,4-thiadiazol-2-yl)sulfonyl)amide sodium salt]
		< 1000	< 1000	c1ncc(N2CCCCC2)cc1Nc1cnc2ccc(Nc3nnc(C4CCCC4)s3)nc2c1 [Example 0101]
		1000 to 10000	< 1000	CC(=O)N1CCN(c2cnc3ccc(Nc4nnc(C5CCCC5)s4)nc3c2)CC1 [Example 0048]
< 1000	< 1000			CCC(C)c1nnc(Nc2ccc3ncc(-c4cnn(CCCN5CCCC5)c4)cc3n2)s1 (centres unmarked) [Example 0263]
		< 1000	1000 to 10000	COc1ccc(Nc2ccnc3ccc(Nc4nnc(C(C)C)s4)nc23)cc1 [Example 0013]
		< 1000	< 1000	c1cc(Nc2cnc3ccc(Nc4nnc(C5CCCC5)s4)nc3c2)ccc1CCN1CCOCC1 [Example 0107]
1000 to 10000	< 1000			OCCNc1cnc2ccc(Nc3nnc(C4CCCC4)s3)nc2c1 [Example 0310]
		1000 to 10000	1000 to 10000	COc1ncccc1Nc1cnc2ccc(Nc3nnc(C4CCCC4)s3)nc2c1 [Example 0077]
		< 1000	< 1000	O=C(Cc1ccc(Nc2cnc3ccc(Nc4nnc(C5CCCC5)s4)nc3c2)cc1)N1CCOCC1 [Example 0105]
		10000 to 50000	< 1000	CN1CCCN(c2cnc3ccc(Nc4nnc(C5CCCC5)s4)nc3c2)CC1 [Example 0060]
< 1000	1000 to 10000			CC(C)c1nnc(Nc2ccc3nccc(-c4cn[nH]c4)c3n2)s1 [Example 0284]
< 1000	< 1000			CC(C)c1nnc(Nc2ccc3nccc(-c4ccn[nH]4)c3n2)s1 [Example 0285]
< 1000	< 1000			CC(C)(C)c1nnc(Nc2ccc3ncc(-c4cnn(CCCN5CCCC5)c4)cc3n2)s1 [Example 0366]
1000 to 10000	< 1000			c1n[nH]cc1Nc1cnc2ccc(Nc3nnc(N4CCOCC4)s3)nc2c1 [Example 0225, N^2-(5-morpholino-1,3,4-thiadiazol-2-yl)-N^7-(1H-pyrazol-4-yl)-1,5-naphthyridine-2,7-diamine]
< 1000	< 1000			c1cc(Nc2cnc3ccc(Nc4nnc(C5CCCC5)s4)nc3c2)ncn1 [Example 0210]
< 1000	1000 to 10000			CC(C)c1nnc(Nc2ccc3nccc(-c4cc[nH]c(=O)c4)c3n2)s1 [Example 0289, 4-(6-((5-isopropyl-1,3,4-thiadiazol-2-yl)amino)-1,5-naphthyridin-4-yl)pyridin-2(1H)-one]
		1000 to 10000	10000 to 50000	COc1ccc(-c2cnc3ccc(Nc4ncc(C)s4)nc3c2)cc1OC [Example 0022, N-(7-(3,4-dimethoxyphenyl)-1,5-naphthyridin-2-yl)-5-methylthiazole-2-amine]
		< 1000	< 1000	COc1ccc(Nc2cnc3ccc(Nc4nnc(C5CCCC5)s4)nc3c2)cn1 [Example 0067]
< 1000	< 1000			COCCc1nn(C)cc1-c1cnc2ccc(Nc3nnc(C(C)C)s3)nc2c1 [Example 0389, 5-isopropyl-N-(7-(3-(2-methoxyethyl)-1-methyl-1H-pyrazol-4-yl)-1,5-naphthyridin-2-yl)-1,3,4-thiadiazole-2-amine]
< 1000	< 1000			CC(=O)N1CC=C(c2cnc3ccc(Nc4nnc(C5CCCC5)s4)nc3c2)CC1 [Example 0334, 1-(4-(6-((5-cyclopentyl-1,3,4-thiadiazol-2-yl)amino)-1,5-naphthyridin-3-yl)-5,6-dihydropyridine-1(2H)-yl)ethanone]
1000 to 10000	< 1000			COc1ccc(-c2ccnc3ccc(Nc4nnc(C(C)C)s4)nc23)cc1 [Example 0272]
